From PubChem BioAssay (NCI)
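Following 48 hours of exposure in 96-well plates, responses at five concentrations were used to interpolate endpoints linearly. Here, GI50 denotes the concentration required for 50% inhibition of growth. TGI denotes the concentration required for complete inhibition of growth.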

Key:
Test in all cases: NCI tumour cell line growth inhibition, 48 h
ACHN renal = system: ACHN renal
HL-60(TB) leukemia = system: HL-60(TB) leukemia
RPMI-8226 leukemia = system: RPMI-8226 leukemia
HCT-15 colon = system: HCT-15 colon
HT29 colon = system: HT29 colon
K-562 leukemia = system: K-562 leukemia
OVCAR-3 ovarian = system: OVCAR-3 ovarian
MDA-MB-435 = system: MDA-MB-435
SK-MEL-28 melanoma = system: SK-MEL-28 melanoma
MCF7 breast = system: MCF7 breast

Row | Structure (SMILES) | TGI (ACHN renal) | TGI (HL-60(TB) leukemia) | TGI (RPMI-8226 leukemia) | TGI (HCT-15 colon) | TGI (HT29 colon) | TGI (K-562 leukemia) | TGI (OVCAR-3 ovarian) | TGI (MDA-MB-435) | TGI (SK-MEL-28 melanoma) | TGI (MCF7 breast) | GI50 (ACHN renal) | GI50 (HL-60(TB) leukemia) | GI50 (RPMI-8226 leukemia) | GI50 (HCT-15 colon) | GI50 (HT29 colon) | GI50 (OVCAR-3 ovarian) | GI50 (MDA-MB-435) | GI50 (SK-MEL-28 melanoma) | GI50 (MCF7 breast) | GI50 (K-562 leukemia)
1 | COC(=O)C(=O)C(C(=O)C(=O)Nc1nc(=S)[nH][nH]1)c1nc2ccc([N+](=O)[O-])cc2[nH]c1=O (stereo unspecified) | > 100 µM | > 100 µM | > 100 µM | > 100 µM | > 100 µM | > 100 µM | > 100 µM | > 100 µM | > 100 µM | > 100 µM | – | – | – | – | – | – | – | – | – | –
2 | NC(=S)N=Nc1c(O)[nH]c2ccccc12 | 394 µM | > 1000 µM | 708 µM | 470 µM | > 1000 µM | > 1000 µM | 322 µM | > 1000 µM | > 1000 µM | 611 µM | 141 µM | 275 µM | 194 µM | 139 µM | 652 µM | 139 µM | 925 µM | 713 µM | 168 µM | –
3 | COc1ccc2c(c1)O/C(=C\c1ccc([N+](=O)[O-])s1)C2=O | > 100 µM | > 100 µM | > 100 µM | 0.825 µM | – | 1.31 µM | – | > 100 µM | > 100 µM | > 100 µM | 1.41 µM | – | 1.69 µM | 0.259 µM | – | – | > 100 µM | 17.1 µM | 0.621 µM | 0.285 µM
4 | COC(=O)C1=C(O)C(C(=O)OC)[C@@]2(O)[C@@H](C(=O)OC)C(c3ccccc3Cl)C[C@@H]1[C@@H]2C(=O)OC (stereo partly specified) | 23.4 µM | – | 6.2 µM | 18 µM | 32.6 µM | > 100 µM | 16.1 µM | 8.82 µM | 30.4 µM | > 100 µM | 5.96 µM | – | 1.88 µM | 4.7 µM | 6.28 µM | 4.48 µM | 3.09 µM | 7.16 µM | 5.24 µM | 3.76 µM
5 | N#CC1C(=O)NC(=O)C(C#N)C1c1ccc(Cl)c(Cl)c1 (stereo unspecified) | 50.9 µM | > 100 µM | – | 46.1 µM | 33 µM | 85.8 µM | 67 µM | 49 µM | > 100 µM | > 100 µM | – | – | – | – | – | – | – | – | – | –
6 | O=C(Nc1ccc(N2CCNCC2)cn1)c1[nH]ncc1Nc1ncnc2sc3c(c12)CCC3 | – | 29.8 µM | 5.82 µM | – | – | 0.498 µM | 3.62 µM | 2.67 µM | – | 4.2 µM | – | 6.28 µM | 1.94 µM | – | – | 1.84 µM | 1.13 µM | – | 1.68 µM | 0.207 µM
7 | NC(N)=N/N=C/c1ccc(Br)cc1 | 20.1 µM | > 100 µM | > 100 µM | 19 µM | 11.3 µM | > 100 µM | 9.23 µM | 3.81 µM | 18.8 µM | 11.7 µM | 7.2 µM | 2.5 µM | 11.6 µM | 3.89 µM | 3.03 µM | 3.41 µM | 1.07 µM | 5.61 µM | 2.28 µM | 3.72 µM
8 | COC(=O)CCc1c(/C=C2\N=C(c3ccc[nH]3)C=C2OC)[nH]c(C)c1C(=O)OCc1ccccc1 | 1.1 µM | 2.42 µM | 2.27 µM | 1.53 µM | 1.68 µM | 3.39 µM | 1.64 µM | 2.25 µM | 2.3 µM | 4.78 µM | 0.297 µM | 0.446 µM | 0.343 µM | 0.177 µM | 0.138 µM | 0.34 µM | 0.409 µM | 0.503 µM | 0.313 µM | 0.252 µM
9 | O=C1C=C(OCC=C(Cl)Cl)C(=O)c2ccccc21 | 99.7 µM | – | > 20.8 µM | > 100 µM | > 100 µM | > 23 µM | 4.13 µM | 3.04 µM | 23.9 µM | 3.81 µM | 7.02 µM | 1.39 µM | 0.955 µM | 7.05 µM | 11.7 µM | 1.9 µM | 1.65 µM | 4.91 µM | 1.61 µM | 1.01 µM
10 | CCCCCCCCCCCCCCCC(N)c1ccccc1 (stereo unspecified) | 3.34 µM | 3.02 µM | 4.66 µM | 3.09 µM | 3.32 µM | 4.2 µM | 3.08 µM | 3.04 µM | 3.48 µM | 3.18 µM | 1.79 µM | 1.37 µM | 2.09 µM | 1.67 µM | 1.66 µM | 1.64 µM | 1.61 µM | 1.8 µM | 1.62 µM | 1.89 µM
11 | COc1cc2c3c(n(CCCN4CCN(CCO)CC4)c(=O)c2cc1OC)-c1cc2c(cc1C3=O)OCO2 | > 44.4 µM | > 41.7 µM | 3.91 µM | > 61.2 µM | 15.9 µM | 29.4 µM | 28.3 µM | > 100 µM | 32.1 µM | 17.5 µM | 8.54 µM | 6.35 µM | 0.559 µM | 18.1 µM | 3.06 µM | 13.2 µM | > 100 µM | 17.5 µM | 0.873 µM | 5.95 µM
12 | O=C1/C(=C/c2cccc(F)c2)CN(C(=O)C(Cl)Cl)C/C1=C\c1cccc(F)c1 | 0.517 µM | 0.773 µM | 0.169 µM | 0.312 µM | 0.764 µM | – | 0.41 µM | 0.491 µM | 0.601 µM | 0.241 µM | 0.212 µM | 0.218 µM | 0.0318 µM | 0.0855 µM | 0.113 µM | 0.19 µM | 0.21 µM | 0.243 µM | 0.0405 µM | 0.0332 µM
13 | C[C@H](c1ccc(Cl)cc1[N+](=O)[O-])N1C(=O)c2cc(I)ccc2NC(=O)[C@H]1c1ccc(Cl)cc1 | > 100 µM | > 100 µM | > 100 µM | > 100 µM | > 100 µM | > 100 µM | > 100 µM | > 100 µM | > 100 µM | > 100 µM | > 100 µM | > 100 µM | > 100 µM | > 100 µM | > 100 µM | 8.83 µM | > 100 µM | > 100 µM | 6.53 µM | 77 µM
